The source of these data is US20250154554A1, “ANTIMICROBIAL SUSCEPTIBILITY” (priority 2022, published 2025).

Structures can show the parent of a compound that is named as a salt. Where two headings read alike, the source gives them in different places. Bounds are passed on as bounds.

Test [1] concerns K. pneumoniae. Description: MIC of strains giving very major errors (VME). It counts as cell-based.
In test [2] the test system is E. coli. Description: MIC of strains giving very major errors (VME). It counts as cell-based.
Test [3] has as its system K. aerogenes. The test is described as follows: MIC of strains giving very major errors (VME). It counts as cell-based. Particulars: strain EB 069, site 2.
Test [4] relates to E. cloacae. Description: MIC of strains giving very major errors (VME). In kind it is cell-based.
Test [5] deals with Gram-negative bacteria (Enterobacterales, Pseudomonas, Acinetobacter). Conditions: for RM I (strains intermediate by reference method) / RM R (strains resistant by reference method) / RM S (strains susceptible by reference method): total of 3 sites, blood cultures; for CLSI RM I / EUCAST RM I: number of strains I; for CLSI RM R / EUCAST RM R: number of strains resistant; for CLSI RM S / EUCAST RM S: number of strains susceptible.

In test [6] the test system is Gram-positive bacteria (Staphylococcus spp, Enterococcus spp). The test is described as follows: Reference method (RM): disk diffusion and/or broth microdilution, S/I/R classification, Gram-positive strains.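 As to all read-outs here: susceptibility categories assigned with the latest EUCAST breakpoint tables or CLSI M100 29th edition breakpoints, with quality control of the reference methods following EUCAST and CLSI guidance.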 It counts as cell-based. Particulars: for CLSI RM R / EUCAST RM R: number of strains resistant; for CLSI RM S / EUCAST RM S: number of strains susceptible.
Test [7] relates to Staphylococcus aureus. Description: Vancomycin MIC by FASTgrampos kit versus broth microdilution (reference method). In kind it is cell-based.
In test [8] the test system is fungi. Particulars: by cell membrane lesions; reference [13]; cited from earlier work.
Test [9] deals with bacteria. Particulars: by cell membrane lesions; reference [14]; cited from earlier work.
Where [10] appears, read: Klebsiella pneumoniae, strain EB 033, site 2, read-out: MIC.
[11] abbreviates: CLSI, FASTinov, Porto, spiked on blood cultures.
Where [12] appears, read: CLSI, Hospital Ramon et Cajal, Madrid, patients' blood cultures.
Setting [13] is: EUCAST, FASTinov, Porto, spiked on blood cultures.
Setting [14] is: EUCAST, Hospital Ramon et Cajal, Madrid, patients' blood cultures.
[15] abbreviates: EUCAST, Hospital S. João, Porto, patients' blood cultures.
Where [16] appears, read: CLSI, Hospital S. João, Porto, patients' blood cultures.
The mark [17] stands for this setting: CLSI, FASTinov, Porto, spiked blood cultures.
Where [18] appears, read: CLSI, total of 3 sites, blood cultures.
[19] abbreviates: EUCAST, FASTinov, Porto, spiked blood cultures.
The mark [20] stands for this setting: EUCAST, total of 3 sites, blood cultures.
The mark [21] stands for this setting: CLSI, Hospital Ramon et Cajal, Madrid, patients blood cultures.
Where [22] appears, read: EUCAST, Hospital Ramon et Cajal, Madrid, patients blood cultures.

For orientation: MIC means the smallest concentration in the dilution series that meets the test's criterion for growth inhibition. As to `CO/N=C(\C(=O)N[C@@H]1C(=O)N2C(C(=O)[O-])=C(C[N+]3(C)CCCC3)CS[C@H]12)c1csc(N)n1` [Cefepime], the MIC in test [1] (setting [10]) was 32 µg/mL; in test [2] (Escherichia coli, strain EB 022, site 2, read-out: MIC), 4 µg/mL; in test [2] (Escherichia coli, strain EB 052, site 2, read-out: MIC) it was 64 µg/mL.

`CC(C)(O/N=C(\C(=O)N[C@@H]1C(=O)N2C(C(=O)[O-])=C(C[n+]3ccccc3)CS[C@H]12)c1csc(N)n1)C(=O)O` [Ceftazidime]: the MIC in test [3] (Klebsiella aerogenes) stood at 16 µg/mL; in [4] (Enterobacter cloacae, strain EB 1168, site 1), 32 µg/mL; in [1] (setting [10]) it was 32 µg/mL. The “RM I (strains intermediate by reference method)” value in test [5] (CLSI) is recorded as 4; in test [5] (EUCAST), 34. Also, the figures for the “RM R (strains resistant by reference method)” value in test [5] (CLSI) and in [5] (EUCAST) were 115 and 119, respectively. In addition, the “RM S (strains susceptible by reference method)” value in [5] (CLSI) was 194; in test [5] (EUCAST), 159. In addition, the figures for the “CLSI RM I” value in test [5] (setting [11]) and in test [5] (setting [12]) were 3 and 1, respectively. Moreover, the “EUCAST RM I” value in [5] (setting [13]) came out at 29; in test [5] (setting [14]), 3; in test [5] (setting [15]), 2. Moreover, the figures for the “CLSI RM R” value in test [5] (setting [11]), in test [5] (setting [12]) and in test [5] (setting [16]) were 94, 13 and 8, respectively. Besides, the “EUCAST RM R” value in [5] (setting [13]) stood at 98; in test [5] (setting [14]), 15; in [5] (setting [15]), 6. In addition, the “CLSI RM S” value in [5] (setting [11]) stood at 56; in test [5] (setting [12]) it was 64; in test [5] (setting [16]) it was 74. For the same compound, the figures for the “EUCAST RM S” value in test [5] (setting [13]), in test [5] (setting [14]) and in test [5] (setting [15]) were 26, 60 and 73, respectively.

On to `CN[C@H](CC(C)C)C(=O)N[C@H]1C(=O)N[C@@H](CC(N)=O)C(=O)N[C@H]2C(=O)N[C@H]3C(=O)N[C@H](C(=O)N[C@H](C(=O)O)c4cc(O)cc(O)c4-c4cc3ccc4O)[C@H](O)c3ccc(c(Cl)c3)Oc3cc2cc(c3O[C@@H]2O[C@H](CO)[C@@H](O)[C@H](O)[C@H]2O[C@H]2C[C@](C)(N)[C@H](O)[C@H](C)O2)Oc2ccc(cc2Cl)[C@H]1O` [Vancomycin], for which the “RM I (strains intermediate by reference method)” value in test [6] (setting [17]) and in test [6] (setting [18]) was 3 each time. The “RM R (strains resistant by reference method)” value in [6] (setting [17]) is reported as 7; in [6] (setting [18]) it was 8; in test [6] (setting [19]) it was 10; in test [6] (setting [20]) it was 11. The “RM S (strains susceptible by reference method)” value turned out to be 100 in test [6] (setting [17]), 254 in test [6] (setting [18]), 100 in [6] (setting [19]) and 254 in test [6] (setting [20]). For the same compound, the “CLSI RM R” value in test [6] (setting [16]) worked out at 1. The “EUCAST RM R” value in [6] (setting [15]) came to 1. Moreover, the “CLSI RM S” value is reported as 56 in test [6] (setting [21]) and 98 in test [6] (setting [16]). Also, the entries for the “EUCAST RM S” value in [6] (setting [22]) and in test [6] (setting [15]) were 56 and 98, respectively. Moreover, the “number of S. aureus strains in MIC distribution” value came to 2 in test [7] (MIC by FASTgrampos 0.25 mg/L, MIC by microdilution 0.25 mg/L); 15 in test [7] (MIC by FASTgrampos 0.25 mg/L, MIC by microdilution 0.5 mg/L); 21 in test [7] (MIC by FASTgrampos 0.5 mg/L, MIC by microdilution 0.5 mg/L); 10 in [7] (MIC by FASTgrampos 0.5 mg/L, MIC by microdilution 1 mg/L); 3 in test [7] (MIC by FASTgrampos 1 mg/L, MIC by microdilution 0.5 mg/L); 7 in [7] (MIC by FASTgrampos 1 mg/L, MIC by microdilution 1 mg/L). Also, the “number of S. aureus strains in MIC distribution” value in [7] (MIC by FASTgrampos 2 mg/L, MIC by microdilution 1 mg/L) was found to be 3; in test [7] (MIC by FASTgrampos 2 mg/L, MIC by microdilution 2 mg/L), 2.

In the case of `CN(C)CCCOc1nn(Cc2ccccc2)c2ccccc12` [benzydamine hydrochloride], the killing of fungi result in test [8] is given as “rapidly kills”. Also, the killing of bacteria entry in [9] was “rapidly kills”.

With Ceftolozane-tazobactam, the “RM I (strains intermediate by reference method)” value in test [5] (CLSI) was found to be 5. Further, the results for the “RM R (strains resistant by reference method)” value in test [5] (CLSI) and in test [5] (EUCAST) were 40 and 45, respectively. Besides, the “RM S (strains susceptible by reference method)” value in test [5] (CLSI) and in [5] (EUCAST) was 267 in each case. Further, the “CLSI RM I” value in [5] (setting [11]) is recorded as 4; in [5] (setting [16]) it was 1. Moreover, the “CLSI RM R” value in test [5] (setting [11]) worked out at 37; in test [5] (setting [12]), 3. Also, the figures for the “EUCAST RM R” value in test [5] (setting [13]), in test [5] (setting [14]) and in [5] (setting [15]) were 41, 3 and 1, respectively. Besides, the entries for the “CLSI RM S” value in test [5] (setting [11]), in [5] (setting [12]) and in test [5] (setting [16]) were 112, 75 and 80, respectively. The results for the “EUCAST RM S” value in test [5] (setting [13]), in [5] (setting [14]) and in test [5] (setting [15]) were 112, 75 and 80, respectively. Besides, the “MIC” value in test [1] (strain EB 032, site 3) was 4 µg/mL; in test [1] (strain EB 101, site 1), over 32 µg/mL; in test [1] (strain EB 677, site 1), 16 µg/mL; in [1] (strain EB 679, site 1), over 32 µg/mL.

Turning to Gentamicin, the “RM I (strains intermediate by reference method)” value in [5] (CLSI) is 6. Also, the “RM R (strains resistant by reference method)” value in [5] (CLSI) is recorded as 77; in [5] (EUCAST), 69; in test [6] (setting [17]), 15; in test [6] (setting [18]), 54; in [6] (setting [19]), 29; in test [6] (setting [20]), 70. For the same compound, the “RM S (strains susceptible by reference method)” value came to 262 in [5] (CLSI); 194 in test [5] (EUCAST); 51 in test [6] (setting [17]); 147 in test [6] (setting [18]); 37 in test [6] (setting [19]); 131 in test [6] (setting [20]). The results for the “CLSI RM I” value in test [5] (setting [11]), in test [5] (setting [12]) and in [5] (setting [16]) were 3, 1 and 2, respectively. For the same compound, the “CLSI RM R” value is listed as 60 in test [5] (setting [11]); 9 in [5] (setting [12]); 8 in test [5] (setting [16]); 15 in [6] (setting [21]); 24 in test [6] (setting [16]). Also, the “EUCAST RM R” value in test [5] (setting [13]) is given as 47; in [5] (setting [14]), 10; in test [5] (setting [15]), 12; in test [6] (setting [22]), 17; in [6] (setting [15]) it was 24. For the same compound, the “CLSI RM S” value in test [5] (setting [11]) is on record as 120; in [5] (setting [12]) it was 70; in test [5] (setting [16]), 72; in test [6] (setting [21]), 28; in [6] (setting [16]), 68. In addition, the “EUCAST RM S” value in test [5] (setting [13]) was 64; in [5] (setting [14]), 65; in test [5] (setting [15]), 65; in test [6] (setting [22]), 26; in test [6] (setting [15]), 68. The “MIC” value in test [2] (strain EB 286, site 3) was 8 µg/mL.

Piperacillin-tazobactam: the “MIC (mg/L)” value was 64/4 in test [3]; 64/4 in test [4] (strain EB 123, site 1); >128/4 in [2] (strain EB 718, site 1). Moreover, the “RM I (strains intermediate by reference method)” value in test [5] (CLSI) is on record as 13; in test [5] (EUCAST), 51. The “RM R (strains resistant by reference method)” value was determined as 95 in test [5] (CLSI) and 86 in test [5] (EUCAST). In addition, the “RM S (strains susceptible by reference method)” value in test [5] (CLSI) is reported as 237; in test [5] (EUCAST), 177. Moreover, the “CLSI RM I” value worked out at 6 in test [5] (setting [11]) and 7 in [5] (setting [12]). Further, the “EUCAST RM I” value is 49 in [5] (setting [13]) and 2 in [5] (setting [14]). Besides, the “CLSI RM R” value in [5] (setting [11]) amounted to 87; in [5] (setting [12]) it was 2; in test [5] (setting [16]), 6. For the same compound, the “EUCAST RM R” value in test [5] (setting [13]) was 71; in [5] (setting [14]), 9; in test [5] (setting [15]) it was 6. The “CLSI RM S” value came to 90 in test [5] (setting [11]), 71 in test [5] (setting [12]) and 76 in test [5] (setting [16]). Besides, the “EUCAST RM S” value in test [5] (setting [13]) is recorded as 33; in test [5] (setting [14]), 69; in [5] (setting [15]), 75. Also, the “MIC” value in test [1] (strain EB 101, site 1) turned out to be 64 µg/mL.
